ChEMBL document CHEMBL1138436, “Biological activity and chemistry of taxoids from the Japanese yew, Taxus cuspidata” (J Nat Prod, 2004)

Key:
Type in all cases: functional
SF-268 = experiment: Growth inhibition of human SF268 cells
U-251 = experiment: Growth inhibition of human U251 cells
OVCAR-4 = experiment: Growth inhibition of human OVCAR4 cells
SF-295 = experiment: Growth inhibition of human SF295 cells
OVCAR-5 = experiment: Growth inhibition of human OVCAR5 cells
HCT-116 = experiment: Growth inhibition of human HCT116 cells
NCI-H460 = experiment: Growth inhibition of human NCI-H460 cells
[1] = Growth inhibition of human HBC5 cells
[2] = Growth inhibition of human HBC4 cells
DMS-273 = experiment: Growth inhibition of human DMS273 cells
LOX IMVI = experiment: Growth inhibition of human LOXIMVI cells
NCI-H522 = experiment: Growth inhibition of human NCI-H522 cells
SK-OV-3 = experiment: Growth inhibition of human SKOV3 cells
[3] = Growth inhibition of human BSY1 cells
SNB-75 = experiment: Growth inhibition of human SNB75 cells
[4] = read-out: LC50 (the source's name)
[5] = read-out: pLC50 (the source's name) (converted)

C=C1[C@@H](OC(=O)/C=C/c2ccccc2)C[C@H](OC(C)=O)[C@]2(C)[C@@H]1C[C@]1(C(C)(C)O)C[C@H](OC(C)=O)C(C)=C1[C@@H](OC(=O)c1ccccc1)[C@@H]2OC(C)=O [TAXUSPINE A]
CC50 (SF-268; [4]): > 100 µM | GI50 (SF-268; read-out: pGI50 (converted)): 42.7 µM | CC50 (SF-268; [5]): 100 µM | TGI (U-251): > 100 µM | GI50 (U-251; read-out: GI50): 71 µM | CC50 (U-251; [4]): > 100 µM | GI50 (U-251; read-out: pGI50 (converted)): 70.8 µM | GI50 (OVCAR-4; read-out: GI50): 22 µM | CC50 (OVCAR-4; [4]): > 100 µM | TGI (OVCAR-4; read-out: TGI): > 100 µM | GI50 (OVCAR-4; read-out: pGI50 (converted)): 22.4 µM | CC50 (OVCAR-4; [5]): 100 µM | TGI (OVCAR-4; read-out: pTGI (converted)): 100 µM | GI50 (SF-295; read-out: GI50): 10 µM | CC50 (SF-295; [4]): > 100 µM | TGI (SF-295; read-out: TGI): > 100 µM | GI50 (SF-295; read-out: pGI50 (converted)): 11 µM | TGI (SF-295; read-out: pTGI (converted)): 100 µM | GI50 (OVCAR-5; read-out: GI50): 32 µM | CC50 (OVCAR-5; [4]): > 100 µM | TGI (OVCAR-5; read-out: TGI): > 100 µM | GI50 (OVCAR-5; read-out: pGI50 (converted)): 32.4 µM | CC50 (OVCAR-5; [5]): 100 µM | TGI (OVCAR-5; read-out: pTGI (converted)): 100 µM | TGI (HCT-116): > 100 µM | GI50 (HCT-116; read-out: GI50): 5.6 µM | CC50 (HCT-116; [4]): > 100 µM | GI50 (HCT-116; read-out: pGI50 (converted)): 5.62 µM | CC50 (HCT-116; [5]): 100 µM | GI50 (NCI-H460; read-out: GI50): 44 µM | CC50 (NCI-H460; [4]): > 100 µM | TGI (NCI-H460; read-out: TGI): > 100 µM | GI50 (NCI-H460; read-out: pGI50 (converted)): 43.7 µM | TGI (NCI-H460; read-out: pTGI (converted)): 100 µM | GI50 ([1]; read-out: GI50): 100 µM | CC50 [1, 4]: > 100 µM | TGI ([1]; read-out: TGI): > 100 µM | GI50 ([1]; read-out: pGI50 (converted)): 25.1 µM | TGI ([1]; read-out: pTGI (converted)): 100 µM | GI50 ([2]; read-out: GI50): 100 µM | CC50 [2, 4]: > 100 µM | TGI ([2]; read-out: TGI): > 100 µM | GI50 ([2]; read-out: pGI50 (converted)): 72.4 µM | TGI ([2]; read-out: pTGI (converted)): 100 µM | GI50 (DMS-273; read-out: GI50): 4.2 µM | CC50 (DMS-273; [4]): > 100 µM | TGI (DMS-273; read-out: TGI): > 100 µM | GI50 (DMS-273; read-out: pGI50 (converted)): 4.37 µM | TGI (DMS-273; read-out: pTGI (converted)): 100 µM | GI50 (LOX IMVI; read-out: GI50): 38 µM | CC50 (LOX IMVI; [4]): > 100 µM | TGI (LOX IMVI; read-out: TGI): > 100 µM | GI50 (LOX IMVI; read-out: pGI50 (converted)): 38 µM | TGI (LOX IMVI; read-out: pTGI (converted)): 100 µM | GI50 (NCI-H522; read-out: GI50): 3.1 µM | CC50 (NCI-H522; [4]): > 100 µM | TGI (NCI-H522; read-out: TGI): 81 µM | GI50 (NCI-H522; read-out: pGI50 (converted)): 3.09 µM | TGI (NCI-H522; read-out: pTGI (converted)): 81.3 µM | GI50 (SK-OV-3; read-out: GI50): 100 µM | CC50 (SK-OV-3; [4]): > 100 µM | TGI (SK-OV-3; read-out: TGI): > 100 µM | GI50 (SK-OV-3; read-out: pGI50 (converted)): 100 µM | CC50 (SK-OV-3; [5]): 100 µM | TGI (SK-OV-3; read-out: pTGI (converted)): 100 µM | GI50 ([3]; BSY-1, read-out: GI50): 6.9 µM | CC50 ([3]; BSY-1, read-out: LC50 (the source's name)): > 100 µM | TGI ([3]; BSY-1, read-out: TGI): 82 µM | GI50 ([3]; BSY-1, read-out: pGI50 (converted)): 6.92 µM | CC50 ([3]; BSY-1, read-out: pLC50 (the source's name) (converted)): 100 µM | TGI ([3]; BSY-1, read-out: pTGI (converted)): 87.1 µM | GI50 (SNB-75; read-out: GI50): 7.3 µM | CC50 (SNB-75; [4]): > 100 µM | TGI (SNB-75; read-out: TGI): 68 µM | GI50 (SNB-75; read-out: pGI50 (converted)): 7.24 µM | CC50 (SNB-75; [5]): 100 µM | TGI (SNB-75; read-out: pTGI (converted)): 67.6 µM
